biological target: T1, human TLR8 (Homo sapiens, UniProt Q9NR97); assay: HEK293-Blue-hTLR-8 cells assay; format: cell-based; settings: HEK293-Blue-hTLR8 cells, R848 stimulation, 20 hrs, SEAP reporter; read-out: HEK/hTLR8 IC50
T1 construct: host or cells: HEK293 (HEK-Blue hTLR8)
T1 sequence (Q9NR97 27-1041): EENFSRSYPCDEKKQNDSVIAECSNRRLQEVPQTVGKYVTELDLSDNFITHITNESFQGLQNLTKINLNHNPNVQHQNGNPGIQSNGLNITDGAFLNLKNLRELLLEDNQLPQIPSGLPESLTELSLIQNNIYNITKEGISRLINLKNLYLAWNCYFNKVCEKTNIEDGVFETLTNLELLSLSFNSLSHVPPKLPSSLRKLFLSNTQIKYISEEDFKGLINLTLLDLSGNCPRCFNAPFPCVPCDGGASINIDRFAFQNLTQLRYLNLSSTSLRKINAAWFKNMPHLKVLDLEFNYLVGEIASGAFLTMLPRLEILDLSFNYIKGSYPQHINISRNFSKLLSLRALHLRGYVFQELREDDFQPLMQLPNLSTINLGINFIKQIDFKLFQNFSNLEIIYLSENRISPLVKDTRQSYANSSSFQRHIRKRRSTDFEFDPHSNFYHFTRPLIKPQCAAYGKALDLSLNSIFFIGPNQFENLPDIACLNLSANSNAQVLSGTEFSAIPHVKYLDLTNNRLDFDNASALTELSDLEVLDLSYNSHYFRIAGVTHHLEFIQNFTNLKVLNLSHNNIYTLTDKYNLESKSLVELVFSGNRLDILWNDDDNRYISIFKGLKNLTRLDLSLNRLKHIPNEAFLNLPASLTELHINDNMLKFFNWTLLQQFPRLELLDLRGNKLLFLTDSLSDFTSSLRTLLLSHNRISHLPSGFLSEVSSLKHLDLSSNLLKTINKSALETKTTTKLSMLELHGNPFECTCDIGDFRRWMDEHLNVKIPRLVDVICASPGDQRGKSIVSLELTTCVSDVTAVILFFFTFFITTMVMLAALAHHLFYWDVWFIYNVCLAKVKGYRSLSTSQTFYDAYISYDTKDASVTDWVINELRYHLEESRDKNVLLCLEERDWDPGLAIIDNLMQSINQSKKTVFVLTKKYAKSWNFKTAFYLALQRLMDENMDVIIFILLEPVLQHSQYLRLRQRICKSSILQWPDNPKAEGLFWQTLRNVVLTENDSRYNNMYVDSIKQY
Excerpt: A stable HEK293-Blue-hTLR-8 cell line was purchased from InvivoGen (Cat. #: hkb-htlr8, San Diego, Calif., USA). These cells were originally designed for studying the stimulation of human TLR8 by monitoring the activation of NF-κB. A SEAP (secreted embryonic alkaline phosphatase) reporter gene was placed under the control of the IFN-β minimal promoter fused to five NF-κB and AP-1-binding sites. The SEAP was induced by activating NF-κB and AP-1 via stimulating HEK-Blue hTLR8 cells with TLR8 ligands. Therefore the reporter expression was declined by TLR8 antagonist under the stimulation of a ligand, such as R848, for incubation of 20 hrs. The cell culture supernatant SEAP reporter activity was determined using QUANTI-Blue™ kit (Cat. #: rep-qb1, Invivogen, San Diego, Ca, USA) at a wavelength of 640 nm, a detection medium that turns purple or blue in the presence of alkaline phosphatase.
HEK293-Blue-hTLR8 cells were incubated at a density of 250,000-450,000 cells/mL in a volume of 170 μL in a 96-well plate in Dulbecco's Modified Eagle's medium (DMEM) containing 4.5 g/L glucose, 50 U/mL penicillin, […], […], 2 mM L-glutamine, 10% (v/v) heat-inactivated fetal bovine serum with addition of 20 μL test compound in a serial dilution in the presence of final DMSO at 1% and 10 μL of 60 uM R848 in above DMEM, perform incubation under 37° C. in a CO2 incubator for 20 hrs. Then 20 μL of the supernatant from each well was incubated with […] Quanti-blue substrate solution at 37° C. for 2 hrs and the absorbance was read at 620-655 nm using a spectrophotometer. The signaling pathway that TLR8 activation leads to downstream NF-κB activation has been widely accepted, and therefore similar reporter assay was modified for evaluating TLR8 antagonist.

IC50 | SMILES
16 nM | C[C@@H]1Cc2c(cnn2C2CN(C[C@H]3CN(c4ccc(C#N)c5ncccc45)C[C@@H](C)O3)C2)CN1 [Example 16, 5-[(2R,6S)-2-methyl-6-[[3-[(6R)-6-methyl-4,5,6,7-tetrahydropyrazolo[4,3-c]pyridin-1-yl]azetidin-1-yl]methyl]morpholin-4-yl]quinoline-8-carbonitrile]
18 nM | C[C@@H]1Cc2nn(C3CN(C[C@H]4CN(c5ccc(C#N)c6ncccc56)C[C@@H](C)O4)C3)cc2CN1 [Example 17, 5-[(2R,6S)-2-methyl-6-[[3-[(6R)-6-methyl-4,5,6,7-tetrahydropyrazolo[4,3-c]pyridin-2-yl]azetidin-1-yl]methyl]morpholin-4-yl]quinoline-8-carbonitrile]
19 nM | C[C@@H]1CN(c2ccc(C#N)c3ncccc23)C[C@H](CN2CC(n3ncc4c3C[C@H](C)NC4)C2)O1 [Example 18, 5-[(2R,6S)-2-methyl-6-[[3-[(6S)-6-methyl-4,5,6,7-tetrahydropyrazolo[4,3-c]pyridin-1-yl]azetidin-1-yl]methyl]morpholin-4-yl]quinoline-8-carbonitrile]
22 nM | C[C@@H]1CN(c2ccc(C#N)c3ncccc23)C[C@H](CN2CC(n3cc4c(n3)C[C@H](C)NC4)C2)O1 [Example 19, 5-[(2R,6S)-2-methyl-6-[[3-[(6S)-6-methyl-4,5,6,7-tetrahydropyrazolo[4,3-c]pyridin-2-yl]azetidin-1-yl]methyl]morpholin-4-yl]quinoline-8-carbonitrile]
28 nM | C[C@@H]1CN(c2ccc(C#N)c3ncccc23)C[C@H](CN2CC(n3ncc4c3CCN[C@@H]4C)C2)O1 [Example 20, 5-[(2R,6S)-2-methyl-6-[[3-[(4R)-4-methyl-4,5,6,7-tetrahydropyrazolo[4,3-c]pyridin-1-yl]azetidin-1-yl]methyl]morpholin-4-yl]quinoline-8-carbonitrile]
72 nM | C[C@@H]1CN(c2ccc(C#N)c3ncccc23)C[C@H](CN2CC(n3cc4c(n3)CCN[C@@H]4C)C2)O1 [Example 21, 5-[(2R,6S)-2-methyl-6-[[3-[(4R)-4-methyl-4,5,6,7-tetrahydropyrazolo[4,3-c]pyridin-2-yl]azetidin-1-yl]methyl]morpholin-4-yl]quinoline-8-carbonitrile]
37 nM | C[C@@H]1CN(c2ccc(C#N)c3ncccc23)C[C@H](CN2CC(n3ncc4c3CCN[C@H]4C)C2)O1 [Example 22, 5-[(2R,6S)-2-methyl-6-[[3-[(4S)-4-methyl-4,5,6,7-tetrahydropyrazolo[4,3-c]pyridin-1-yl]azetidin-1-yl]methyl]morpholin-4-yl]quinoline-8-carbonitrile]
44 nM | C[C@@H]1CN(c2ccc(C#N)c3ncccc23)C[C@H](CN2CC(n3cc4c(n3)CCN[C@H]4C)C2)O1 [Example 23, 5-[(2R,6S)-2-methyl-6-[[3-[(4S)-4-methyl-4,5,6,7-tetrahydropyrazolo[4,3-c]pyridin-2-yl]azetidin-1-yl]methyl]morpholin-4-yl]quinoline-8-carbonitrile]
14 nM | C[C@@H]1CN(c2ccc(C#N)c3ncccc23)C[C@H](CN2CC(n3cc4c(n3)C(C)(C)CNC4)C2)O1 [Example 24, 5-[(2S,6R)-2-[[3-(7,7-dimethyl-5,6-dihydro-4H-pyrazolo[4,3-c]pyridin-2-yl)azetidin-1-yl]methyl]-6-methyl-morpholin-4-yl]quinoline-8-carbonitrile]
25 nM | C[C@@H]1CN(c2ccc(C#N)c3ncccc23)C[C@H](CN2CCC(n3ncc4c3CCNC4)CC2)O1 [Example 35, 5-[(2R,6S)-2-methyl-6-[[4-(4,5,6,7-tetrahydropyrazolo[4,3-c]pyridin-1-yl)-1-piperidyl]methyl]morpholin-4-yl]quinoline-8-carbonitrile]
40 nM | C[C@@H]1CN(c2ccc(C#N)c3ncccc23)C[C@H](CN2CCC(n3cc4c(n3)CCNC4)CC2)O1 [Example 36, 5-[(2R,6S)-2-methyl-6-[[4-(4,5,6,7-tetrahydropyrazolo[4,3-c]pyridin-2-yl)-1-piperidyl]methyl]morpholin-4-yl]quinoline-8-carbonitrile]
18 nM | Cc1nn(C2CN(C[C@H]3CN(c4ccc(C#N)c5ncccc45)C[C@@H](C)O3)C2)c2c1CCNC2 [Example 42, 5-[(2R,6S)-2-methyl-6-[[3-(3-methyl-4,5,6,7-tetrahydropyrazolo[3,4-c]pyridin-1-yl)azetidin-1-yl]methyl]morpholin-4-yl]quinoline-8-carbonitrile]
34 nM | Cc1c2c(nn1C1CN(C[C@H]3CN(c4ccc(C#N)c5ncccc45)C[C@@H](C)O3)C1)CNCC2 [Example 43, 5-[(2R,6S)-2-methyl-6-[[3-(3-methyl-4,5,6,7-tetrahydropyrazolo[3,4-c]pyridin-2-yl)azetidin-1-yl]methyl]morpholin-4-yl]quinoline-8-carbonitrile]

Source: patent US20210300924A1, “5-[6-[[3-(4,5,6,7-TETRAHYDROPYRAZOLO[4,3-C]PYRIDIN-1-YL)AZETIDIN-1-YL]METHYL]MORPHOLIN-4-YL]QUINOLINE-8-CARBONITRILE DERIVATIVES AND SIMILAR COMPOUNDS AS TLR7-9 ANTAGONISTS FOR TREATING SYSTEMIC LUPUS ERYTHEMATOSUS” (Hoffmann-La Roche Inc., priority 2018, published 2021)
